The text below walks through data of patent publication US9796659B2, “Derivatives of polyhydroxy compounds” (RATIOPHARM GMBH, priority 2014, dated 2017).

Structures can show the parent of a compound that is named as a salt.

Data set [1] in a line: Membrane permeability in Caco-2 monolayers. Conditions: human; for recovery at 90 min, 250 μM / recovery at 90 min: Caco-2, Recovery [%] mean ± s.d. As for the experimental part: (§1) The membrane permeability was investigated in Caco-2 monolayers. DMF was investigated in a separate experiment for comparison.
(§2) […] The test concentration in the apical medium was 250 μM. […] Furthermore, a significant metabolism or degradation of the test compound was expected and therefore the parent compound as well as MMF was determined in the acceptor compartment (basolateral medium). Sampling time points were 15, 45 and 90 min.

The next data set has as its system Caco-2 monolayers. The experiment in a line: Membrane permeability in Caco-2 monolayers. Conditions: for permeability category compared to the reference molecules: Caco-2. As to the method:
as §1, §2

The subject of data set [2] is MOG35-55-induced experimental autoimmune encephalomyelitis (EAE). Kind of data set: MOG35-55-induced experimental autoimmune encephalomyelitis (EAE) in the mouse. The format is in vivo, male C57BL/6 mice. Conditions: prophylactic treatment from day 1; observations day 1 to 13; dose formulation 11.54 mM, 10 ml/kg. As to the method: The pharmacological efficacy was investigated in experimental autoimmune encephalomyelitis (EAE) in the mouse.
The experiments were performed as follows: male C57BL/6 mice, 12 weeks old, 10 animals per treatment group, were used. On day 1, animals were immunized by sub-cutaneous injection of MOG35-55, which was mixed in complete Freund's adjuvants. On the same day as well as on day 3 the animals received a sub-cutaneous injection of Pertussis-toxin.
Assessment and comparison of the efficacy of compounds of the invention and DMF (reference) in MOG35-55-induced experimental autoimmune encephalomyelitis (EAE) in C57BL/6 mice. • Test system: male C57BL/6 mice, 12 weeks old; 10 animals per treatment group; • Induction of EAE: Day 1—subcutaneous injection of MOG35-55, suspended in complete Freund's adjuvants and intraperitoneal injection of pertussis toxin. • Day 3—intraperitoneal injection of pertussis toxin. • Treatment: Dimethylfumarate and test substances or vehicle only were administered via oral and intravenous route. For oral administration, test substances were dissolved or suspended in 0.5% hydroxyethylcellulose (dissolved in 50 mM potassium dihydrogenphosphate, pH 5.0). […]

Data set [3] can be described thus: In vivo pharmacokinetics of MMF after p.o. administration. Details: species or system female NMRI mice. The conditions noted are these: female, NMRI, mouse, po, 49.4 mg/kg. As to the method:
The pharmacokinetics of MMF after administration of Example 7 and DMF for comparison was investigated in female NMRI mice (3 animals per group). The test compound was dissolved in DMSO/PEG300 (20/80) and administered p.o. (gavage) at a dose volume of 10 ml/kg. DMF was given at a dose of 45 mg/kg. The test compound was dosed at a MMF-equivalent dose, i.e. 49.4 mg/kg. Blood samples were taken at 0.25, 0.5, 1.0, 2.0, 4.0, 6.0 and 8.0 h after drug administration.
Pharmacokinetic parameters, derived by non-compartmental analysis for test compound

[4] abbreviates: Caco-2, Papp × 10^−6 [cm/sec] mean ± s.d.

`C[C@]12CC[C@H]3[C@@H](CCC4=CC(=O)CC[C@@]43C)[C@@H]1CC[C@@H]2O` [Testosterone, testosterone]: the recovery at 90 min, 250 μM in data set [1] (direction a-b) worked out at 67.3 ± 1.2%. This compound returned a recovery at 90 min in data set [1] (direction b-a) of 94.9 ± 0.9%. Moreover, the figures for the “Recovery [%] mean ± s.d.” value in the data set on Caco-2 monolayers (direction a-b) and with Caco-2 monolayers (direction b-a) were 62.5 ± 2.1% and 76.1 ± 4.5%, respectively.

For the compound `COC(=O)/C=C/C(=O)OC` [DMF, Dimethyl fumarate], in data set [2], the body weight entry is “remained stable” and the “clinical symptoms (clinical score, grade 0-10)” value was “protected from the development of clinical symptoms”. The compound further came in with a Papp A→B at 90 min, 250 μM in data set [1] (setting [4]) of 1.8 ± 0.2 ×10⁻⁶ cm/s. Also, the recovery at 90 min, 250 μM in data set [1] turned out to be 11.6%. Further, the “permeability category compared to the reference molecules” value in the data set on Caco-2 monolayers was “moderate permeability”.

Consider `CC[C@H]1OC(=O)[C@H](C)[C@@H](O[C@H]2C[C@@](C)(OC)[C@@H](O)[C@H](C)O2)[C@H](C)[C@@H](O[C@@H]2O[C@H](C)C[C@H](N(C)C)[C@H]2O)[C@](C)(O)C[C@@H](C)C(=O)[C@H](C)[C@@H](O)[C@]1(C)O` [Erythromycin, erythromycin], for which the efflux ratio at 90 min in data set [1] (Caco-2, Efflux ratio (b-a/a-b)) came to 55.9. In data set [1] (setting [4]), the Papp A→B at 90 min, 250 μM is 0.2 ± 0.02 ×10⁻⁶ cm/s and the Papp B→A at 90 min is 12.3 ± 0.4 ×10⁻⁶ cm/s. Besides, in data set [1], the recovery at 90 min is 99.9 ± 2.4% and the recovery at 90 min, 250 μM was found to be 108 ± 2.2%. In addition, in the data set on Caco-2 monolayers (human, Caco-2, 90 min), the “Efflux ratio (b-a/a-b)” value was determined as 100.8, the “Papp × 10^−6 [cm/sec] mean ± s.d.” value is listed as 11.5 ± 0.5 10^−6 cm/sec and the “Recovery [%] mean ± s.d.” value is reported as 89.1 ± 8.5%. In the data set with Caco-2 monolayers (human, Caco-2, 90 min, 250 μM), the “Papp × 10^−6 [cm/sec] mean ± s.d.” value was 0.1 ± 0.2 10^−6 cm/sec and the “Recovery [%] mean ± s.d.” value was 91.0 ± 1.9%.

As for `COC(=O)/C=C/C(=O)OCC(O)COC(=O)/C=C/C(=O)OC` [Example 7, (E)-But-2-enedioic acid 2-hydroxy-3-((E)-3-methoxycarbonyl-acryloyloxy)-propyl ester methyl ester], the “Tmax of MMF” value in data set [3] came out at 15 min. The same compound registered a Papp A→B at 90 min, 250 μM in data set [1] (setting [4]) of 2.5 ± 0.2 ×10⁻⁶ cm/s. The recovery at 90 min, 250 μM in data set [1] was 18.3%. Further, the “permeability category compared to the reference molecules” value in the data set with Caco-2 monolayers is recorded as “moderate permeability”.
